Entries after “also recorded” stand apart in the source; their conditions may differ.
What was measured:
CD200 = test: qPCR of CD200 RNA levels in melanoma cell lines after MEK-inhibitor treatment; format: cell-based; conditions: panel of melanoma cell lines, 24 h, 100 nM
Method: FIGS. 11A-C. 11A. CD200 decrease in melanomas after MEK-inhibitor treatment, but not in carcinomas (GSE10087). 11B. […] 11C. The pREP4-CD200 reporter recapitulates changes in response to MEK-inhibitor (24 h; 100 nM). Significance as * p<0.05: ** p<0.01, based on 2-sample, 2-tailed t-test. Because CD200 has been identified as regulated by MAPK-signaling in melanoma cells, a pathway which is frequently deregulated by BRAF(V600E) function, we wanted to assure that this mode of regulation holds true. To this end, we analyzed publicly available data (GSE10087) on MEK-inhibitor treatment across a cohort of carcinoma and melanoma cell lines (FIG. 11A), measured CD200 levels by qPCR following MEK inhibition in a cohort of our melanoma cell lines (FIG. 11B), and initial reporter assays (FIG. 11C). […] Using qPCR, we measured the effect of MEK-inhibitor treatment on CD200 RNA levels across our panel of melanoma cell lines (see FIG. 11B), using 24 h treatment with PD0325901 [100 nM].

[1] = tested on: CD200 promoter (pREP4-CD200 reporter); test: pREP4-CD200 reporter assay; format: cell-based, human; conditions: 24 h; 100 nM
Method: FIGS. 11A-C. 11A. CD200 decrease in melanomas after MEK-inhibitor treatment, but not in carcinomas (GSE10087). 11B. […] 11C. The pREP4-CD200 reporter recapitulates changes in response to MEK-inhibitor (24 h; 100 nM). Significance as * p<0.05: ** p<0.01, based on 2-sample, 2-tailed t-test. The region next to the CD200 transcription start drives basal activity. We have therefore amplified an 850 bp fragment upstream of the CD200 start codon, and cloned it into an EBNA-carrying vector (pREP4-LUC/hygromycin [50]) that remains episomal and replicates within human cells and allows nucleosome deposition to form chromatin. Because CD200 has been identified as regulated by MAPK-signaling in melanoma cells, a pathway which is frequently deregulated by BRAF(V600E) function, we wanted to assure that this mode of regulation holds true. To this end, we analyzed publicly available data (GSE10087) on MEK-inhibitor treatment across a cohort of carcinoma and melanoma cell lines (FIG. 11A), measured CD200 levels by qPCR following MEK inhibition in a cohort of our melanoma cell lines (FIG. 11B), and initial reporter assays (FIG. 11C).

O=C(NOC[C@H](O)CO)c1ccc(F)c(F)c1Nc1ccc(I)cc1F [PD0325901]
CD200 RNA levels (CD200): consistently are reduced; also recorded: consistent downregulation of CD200 levels; also recorded: Consistent CD200 decrease
pREP4-CD200 reporter response [1]: parallels these responses

Reference: US20210024634A1, “METHODS FOR PREDICTING AND ENHANCING THERAPEUTIC BENEFIT FROM CHECKPOINT INHIBITORS IN CANCER” (The Brigham and Women's Hospital, Inc., priority 2018, published 2021)
